The source of these data is patent publication US6573293B2, “Pyrrole substituted 2-indolinone protein kinase inhibitors” (Sugen, Inc., priority 2000, dated 2003).

The target of one assay is T1, GST-Flk1 (Mus musculus, UniProt P35918).
T1 construct: GST-Flk1cd purified from sf9 recombinant baculovirus transformation; host or cells: Sf9 (baculovirus)
The assay is described as follows: GST-FLK-1 bioassay (bio flkGST). The format is biochemical.

Assay [1] concerns the target T2, EGFR (Homo sapiens, UniProt P00533).
T2 construct: A431 cell lysate (SUGEN, Inc.); host or cells: A431
Nature of the assay: EGFR bioassay (bio EGF). The format is biochemical.
Protocol: This assay is used to the in vitro kinase activity of FGF1-R in an ELISA assay.
1. Corning 96-well Elisa plates.
2. SUMO1 monoclonal anti-EGFR antibody (SUGEN, Inc.).
5. Blocking Buffer: for 100 ml, mix 5.0 g Carnation Instant Non-fat Milk® with 100 ml of PBS.
6. A431 cell lysate (SUGEN, Inc.).
9. […] This reagent should be made up immediately prior to use and kept on ice.
11. […] Prepare just prior to use, keep on ice.
12. NUNC 96-well V bottom polypropylene plates.
14. Rabbit polyclonal anti-phosphotyrosine serum (SUGEN, Inc.).
15. Goat anti-rabbit IgG peroxidase conjugate (Biosource Cat. No. ALI0404).
17. 30% Hydrogen peroxide.
1. Coat Corning 96 well ELISA plates with 0.5 μg SUMO1 in 100 μl PBS per well, store overnight at 4° C.
2. Remove unbound SUMO1 from wells by inverting plate to remove liquid. Wash 1×with dH2O. Pat the plate on a paper towel to remove excess liquid.
3. Add 150 μl of Blocking Buffer to each well. Incubate, with shaking, for 30 min. at room temperature.
4. Wash plate 3×with deionized water, then once with TBST. Pat plate on a paper towel to remove excess liquid and bubbles.
5. Dilute lysate in PBS (7 μg lysate/100 μl PBS).
6. Add 100 μl of diluted lysate to each well. Shake at room temperature for 1 hr.
7. Wash plates as in 4, above.
8. Add 120 μl TBS to ELISA plate containing captured EGFR.
10. Add 13.5 μl diluted test compound to ELISA plate. To control wells, add 13.5 μl TBS in 10% DMSO.
11. Incubate, with shaking, for 30 minutes at room temperature.
12. Add 15 μl phosphorylation mix to all wells except negative control well. Final well volume should be approximately 150 μl with 3 μM ATP/5 mM MnCl2 final concentration in each well. Incubate with shaking for 5 minutes.
13. Stop reaction by adding 16.5 μl of EDTA solution while shaking. Shake for additional 1 min.
14. Wash 4×with deionized water, 2×with TBST.
15. Add 100 μl anti-phosphotyrosine (1:3000 dilution in TBST) per well. Incubate, with shaking, for 30-45 min. at room temperature.
17. […] Incubate with shaking for 30 min. at room temperature.
19. Add 100 μl of ABTS/H2O2 solution to each well.
20. Incubate 5 to 10 minutes with shaking. Remove any bubbles.
21. If necessary, stop reaction by adding 100 μl 0.2 M HCl per well.

Assay [2] addresses T2, EGFR. The assay is described as follows: cell EGF assay. The format is cell-based. As to the method:
Several of the assays described herein are performed in an ELISA (Enzyme-Linked Immunosorbent Sandwich Assay) format (Voller, et al., 1980, “Enzyme-Linked Immunosorbent Assay,” Manual of Clinical Immunology, 2d ed., Rose and Friedman, Am. Soc. Of Microbiology, Washington, D.C., pp. 359-371). The general procedure is as follows: a compound is introduced to cells expressing the test kinase, either naturally or recombinantly, for a selected period of time after which, if the test kinase is a receptor, a ligand known to activate the receptor is added. The cells are lysed and the lysate is transferred to the wells of an ELISA plate previously coated with a specific antibody recognizing the substrate of the enzymatic phosphorylation reaction. Non-substrate components of the cell lysate are washed away and the amount of phosphorylation on the substrate is detected with an antibody specifically recognizing phosphotyrosine compared with control cells that were not contacted with a test compound.

For the next assay, the target named is T3, PDGFR-β (Homo sapiens, UniProt P09619).
T3 construct: host or cells: NIH 3T3
The assay is described as follows: PDGFR bioassay (bio PDGF). The format is biochemical.

The next assay addresses T4, HER-2 kinase (Homo sapiens, UniProt P04626).
T4 construct: Use EGFr/HER-2 chimera/3T3-C7 cell line for this assay; It is expressed in mouse NIH 3T3 clone C7 cells; P00533 (Epidermal growth factor receptor)
Nature of the assay: Cellular HER-2 kinase assay. The settings on record: read-out: Her2 Kinase IC50. The format is cell-based.

Structures are written as SMILES. Where only a bound is given, the exact number is not on record here.

A word on the IC50: it is the concentration at which inhibition is half-maximal.

T1 sequence (P35918 784-1345 limits assumed): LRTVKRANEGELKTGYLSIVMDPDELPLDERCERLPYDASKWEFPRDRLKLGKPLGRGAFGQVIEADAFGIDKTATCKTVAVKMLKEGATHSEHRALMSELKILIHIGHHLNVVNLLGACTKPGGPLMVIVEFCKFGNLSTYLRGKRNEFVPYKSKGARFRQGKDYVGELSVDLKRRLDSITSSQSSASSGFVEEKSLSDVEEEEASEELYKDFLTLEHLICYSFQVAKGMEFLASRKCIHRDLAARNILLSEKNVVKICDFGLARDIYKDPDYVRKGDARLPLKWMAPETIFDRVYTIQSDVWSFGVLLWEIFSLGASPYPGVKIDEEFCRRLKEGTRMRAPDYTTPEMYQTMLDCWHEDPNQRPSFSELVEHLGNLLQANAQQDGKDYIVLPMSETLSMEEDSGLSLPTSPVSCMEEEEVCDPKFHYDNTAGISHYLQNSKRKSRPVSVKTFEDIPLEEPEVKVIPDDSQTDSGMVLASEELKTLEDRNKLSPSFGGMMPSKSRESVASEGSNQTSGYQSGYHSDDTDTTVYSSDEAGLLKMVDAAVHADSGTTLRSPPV
T2 sequence (P00533 25-1210): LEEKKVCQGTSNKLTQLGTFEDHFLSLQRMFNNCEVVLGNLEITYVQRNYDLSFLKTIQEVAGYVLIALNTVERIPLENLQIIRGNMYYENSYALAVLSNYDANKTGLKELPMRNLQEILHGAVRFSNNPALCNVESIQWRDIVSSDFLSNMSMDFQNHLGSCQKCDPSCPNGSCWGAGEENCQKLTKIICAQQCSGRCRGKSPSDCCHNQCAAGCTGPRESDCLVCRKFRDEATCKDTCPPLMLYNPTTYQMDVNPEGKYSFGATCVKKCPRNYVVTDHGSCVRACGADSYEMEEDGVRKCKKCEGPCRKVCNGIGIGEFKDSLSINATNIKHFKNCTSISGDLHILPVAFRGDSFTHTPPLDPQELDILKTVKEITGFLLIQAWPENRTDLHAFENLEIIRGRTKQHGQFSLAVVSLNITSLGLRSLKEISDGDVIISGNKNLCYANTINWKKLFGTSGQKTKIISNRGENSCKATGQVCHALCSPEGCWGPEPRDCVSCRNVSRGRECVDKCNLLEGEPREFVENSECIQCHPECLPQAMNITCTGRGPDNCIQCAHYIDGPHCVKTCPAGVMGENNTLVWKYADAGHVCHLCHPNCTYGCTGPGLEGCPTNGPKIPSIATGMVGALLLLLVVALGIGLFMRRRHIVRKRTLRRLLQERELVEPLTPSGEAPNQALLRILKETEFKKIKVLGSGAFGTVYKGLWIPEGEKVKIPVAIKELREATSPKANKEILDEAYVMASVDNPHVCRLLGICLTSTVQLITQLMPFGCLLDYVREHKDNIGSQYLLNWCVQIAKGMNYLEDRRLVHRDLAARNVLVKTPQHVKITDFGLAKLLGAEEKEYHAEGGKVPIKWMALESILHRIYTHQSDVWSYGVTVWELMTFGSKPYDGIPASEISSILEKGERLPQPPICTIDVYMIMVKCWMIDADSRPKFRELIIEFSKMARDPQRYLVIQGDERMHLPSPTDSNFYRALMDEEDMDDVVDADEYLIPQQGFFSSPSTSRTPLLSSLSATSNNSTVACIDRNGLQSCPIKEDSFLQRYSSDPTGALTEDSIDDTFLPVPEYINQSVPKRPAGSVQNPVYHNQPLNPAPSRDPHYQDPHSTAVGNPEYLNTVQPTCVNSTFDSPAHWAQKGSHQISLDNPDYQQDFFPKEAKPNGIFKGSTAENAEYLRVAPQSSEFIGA
T3 sequence (P09619 33-1106): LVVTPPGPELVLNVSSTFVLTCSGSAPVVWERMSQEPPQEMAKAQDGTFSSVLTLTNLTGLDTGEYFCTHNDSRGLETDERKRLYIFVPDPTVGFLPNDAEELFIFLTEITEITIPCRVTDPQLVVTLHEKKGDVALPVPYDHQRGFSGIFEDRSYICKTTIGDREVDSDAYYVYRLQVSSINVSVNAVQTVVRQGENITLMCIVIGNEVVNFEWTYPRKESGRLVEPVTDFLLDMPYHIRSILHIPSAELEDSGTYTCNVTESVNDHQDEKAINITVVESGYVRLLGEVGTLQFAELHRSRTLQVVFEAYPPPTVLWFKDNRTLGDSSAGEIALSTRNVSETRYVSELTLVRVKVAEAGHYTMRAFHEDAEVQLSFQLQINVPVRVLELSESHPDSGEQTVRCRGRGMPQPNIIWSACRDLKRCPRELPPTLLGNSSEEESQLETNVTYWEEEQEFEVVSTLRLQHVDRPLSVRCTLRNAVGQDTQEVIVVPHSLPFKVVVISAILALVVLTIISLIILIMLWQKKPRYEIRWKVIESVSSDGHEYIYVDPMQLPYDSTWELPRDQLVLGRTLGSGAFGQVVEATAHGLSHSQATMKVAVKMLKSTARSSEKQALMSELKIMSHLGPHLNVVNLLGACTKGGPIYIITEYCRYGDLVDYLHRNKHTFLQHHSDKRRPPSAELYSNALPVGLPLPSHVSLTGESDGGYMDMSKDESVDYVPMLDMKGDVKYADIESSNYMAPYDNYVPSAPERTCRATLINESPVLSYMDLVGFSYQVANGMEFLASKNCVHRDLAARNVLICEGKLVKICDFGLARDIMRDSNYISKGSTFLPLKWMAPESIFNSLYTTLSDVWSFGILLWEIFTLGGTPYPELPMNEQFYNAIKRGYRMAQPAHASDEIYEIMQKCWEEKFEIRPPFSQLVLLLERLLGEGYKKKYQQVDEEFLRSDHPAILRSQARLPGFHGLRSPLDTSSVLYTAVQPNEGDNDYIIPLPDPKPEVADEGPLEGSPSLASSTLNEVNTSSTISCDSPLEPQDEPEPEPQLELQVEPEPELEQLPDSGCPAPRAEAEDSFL
T4 sequence (P04626 720-987 limits assumed): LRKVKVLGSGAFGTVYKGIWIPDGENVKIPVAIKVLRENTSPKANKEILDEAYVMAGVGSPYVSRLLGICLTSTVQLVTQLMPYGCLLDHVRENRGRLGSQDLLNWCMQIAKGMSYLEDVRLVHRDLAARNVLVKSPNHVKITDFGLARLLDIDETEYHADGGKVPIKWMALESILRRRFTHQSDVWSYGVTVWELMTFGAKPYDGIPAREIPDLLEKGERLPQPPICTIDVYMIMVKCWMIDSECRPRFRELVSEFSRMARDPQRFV
Protocol for GST-Flk1: This assay analyzes the tyrosine kinase activity of GST-Flk1 on poly(glu,tyr) peptides.
Preparation of poly(glu,tyr)(pEY) coated assay plates: Coat 2 ug/well of poly(glu,tyr)(pEY) in 100 ul PBS, hold at room temperature for 2 hours or at 4° C. overnight. Cover plates well to prevent evaporation.
When all reagents have dissolved, adjust the pH to 7.2 with HCl. Bring total volume to 1 L with dH2O.
PBST Buffer: to 1 L of PBS Buffer, add 1.0 ml Tween-20.
Adjust pH to 7.2 with HCl. Add 10 g BSA, stir to dissolve. Bring total volume to 1 L with dH2O. Filter to remove particulate matter.
Adjust total volume to 1 L with PBS buffer, filter to remove particulate matter.
GST-Flk1cd purified from sf9 recombinant baculovirus transformation (SUGEN, Inc.).
Add 10 N NaOH until EDTA dissolves. Adjust pH to 8.0. Adjust total volume to 100 ml with dH2O.
Anti-phosphotyrosine monoclonal antibody conjugated to horseradish peroxidase (PY99 HRP, Santa Cruz Biotech).
2,2′-Azinobis(3-ethylbenzthiazoline-6-sulfonic acid (ABTS, Moss, Cat. No. ABST).
Coat Corning 96-well ELISA plates with 2 μg of polyEY peptide in sterile PBS as described in step 3 of Materials and Reagents.
Remove unbound liquid from wells by inverting plate. Wash once with TBST. Pat the plate on a paper towel to remove excess liquid.
Add 100 μl of 1% BSA in PBS to each well. Incubate, with shaking, for 1 hr. at room temperature.
Soak wells with 50 mM HEPES (pH7.5) (150 μl/well).
Dilute test compound with dH2O/4% DMSO to 4 times the desired final assay concentration in 96-well polypropylene plates.
Add 25 μl diluted test compound to ELISA plate. In control wells, place 25 μl of dH2O/4% DMSO.
Add 25 μl 0.5M EDTA to negative control wells.
Dilute GST-Flk1 to 0.005 μg (5 ng)/well with KDB.
Add 50 μl of diluted enzyme to each well.
Incubate, with shaking, for 15 minutes at room temperature.
Wash 3×with TBST and pat plate on paper towel to remove excess liquid.
Incubate, with shaking, for 90 min. at room temperature.
Add 100 μl of room temperature ABTS solution to each well.
Stop reaction by adding 20 μl of 10% SDS to each well.
Protocol for HER-2 kinase: Cellular HER-2 Kinase Assay
This assay is used to measure HER-2 kinase activity in whole cells in an ELISA format.
Fetal Bovine Serum (FBS, GIBCO Catalog #16000-044), heat inactivated in a water bath for 30 min. at 56° C.
Corning 96-well ELISA Plates.
(§1) NUNC 96-well V bottom polypropylene plates.
SUMO 1: monoclonal anti-EGFR antibody (SUGEN, Inc.).
Blocking Buffer: 5% Carnation Instant Milk® in PBS.
Suspend powder in 100 uL of 10 mM HCl. Add 100 uL 10 mM NaOH. Add 800 uL PBS and transfer to an Eppendorf tube, store at −20° C. until ready to use.
Na3VO4. […] Adjust pH to 10. Boil in microwave for one minute (solution becomes clear). Cool to room temperature. Adjust pH to 10. Repeat heating/cooling cycle until pH remains at 10.
Rabbit polyclonal antiserum specific for phosphotyrosine (anti-Ptyr antibody, SUGEN, Inc.).
Affinity purified antiserum, goat anti-rabbit IgG antibody, peroxidase conjugate (Biosource Cat #ALI0404).
30% Hydrogen peroxide solution.
Coat Corning 96 well ELISA plates with SUMO1 at 1.0 ug per well in PBS, 100 ul final volume/well. Store overnight at 4° C.
On day of use, remove coating buffer and wash plate 3 times with dH2O and once with TBST buffer. All washes in this assay should be done in this manner, unless otherwise specified.
Add 100 ul of Blocking Buffer to each well. Incubate plate, with shaking, for 30 min. at room temperature. Just prior to use, wash plate.
Use EGFr/HER-2 chimera/3T3-C7 cell line for this assay.
Choose dishes having 80-90% confluence. Collect cells by trypsinization and centrifuge at 1000 rpm at room temperature for 5 min.
Resuspend cells in starve medium and count with trypan blue. Viability above 90% is required. Seed cells in starve medium at a density of 2,500 cells per well, 90 ul per well, in a 96 well microtiter plate. Incubate seeded cells overnight at 37° under 5% CO2.
Start the assay two days after seeding.
Test compounds are dissolved in 4% DMSO. Samples are then further diluted directly on plates with starve-DMEM. Typically, this dilution will be 1:10 or greater.
Incubate under 5% CO2 at 37° C. for 2 hours.
Prepare fresh HNTG* sufficient for 100 ul per well; place on ice.
After 2 hour incubation with test compound, add prepared EGF ligand to cells, 50 ul per well, for a final concentration of 50 nM. Positive control wells receive the same amount of EGF. […] Incubate at 37° C. for 10 min.
Remove test compound, EGF, and DMEM. Wash cells once with PBS.
Transfer HNTG* to cells, 100 ul per well. Place on ice for 5 minutes. Meanwhile, remove blocking buffer from ELISA plate and wash.
Scrape cells from plate with a micropipettor and homogenize cell material by repeatedly aspirating and dispensing the HNTG* lysis buffer. Transfer lysate to a coated, blocked, washed ELISA plate. Or, use a Costar transfer cartridge to transfer lysate to the plate.
Incubate, with shaking, at room temperature for 1 hr.
Remove lysate, wash. Transfer freshly diluted anti-Ptyr antibody (1:3000 in TBST) to ELISA plate, 100 ul per well.
Incubate, with shaking, at room temperature, for 30 min.
Remove anti-Ptyr antibody, wash. Transfer freshly diluted BIOSOURCE antibody to ELISA plate (1:8000 in TBST, 100 ul per well).
Incubate, with shaking, at room temperature for 30 min.
Remove BIOSOURCE antibody, wash. Transfer freshly prepared ABTS/H2O2 solution to ELISA plate, 100 ul per well.
Stop reaction with the addition of 100 ul of 0.2M HCl per well.
Protocol for PDGFR-β: Corning 96-well Elisa plates
28D4C10 monoclonal anti-PDGFR antibody (SUGEN, Inc.).
Blocking Buffer (same as for EGFR bioassay).
PDGFR-β expressing NIH 3T3 cell lysate (SUGEN, Inc.).
Kinase buffer phosphorylation mix: for 10 ml, mix 250 μl 1M TRIS, 200 μl 5M NaCl, 100 μl 1M MnCl2 and 50 μl 100 mM Triton X-100 in enough dH2O to make 10 ml.
as §1
Rabbit polyclonal anti-phosphotyrosine serum (SUGEN, Inc.).
Goat anti-rabbit IgG peroxidase conjugate (Biosource Cat. No. ALI0404).
Hydrogen peroxide, 30% solution.
Coat Corning 96 well ELISA plates with 0.5 μg 28D4C10 in 100 μl PBS per well, store overnight at 4° C.
Remove unbound 28D4C10 from wells by inverting plate to remove liquid. Wash 1×with dH2O. Pat the plate on a paper towel to remove excess liquid.
Add 150 μl of Blocking Buffer to each well. Incubate for 30 min. at room temperature with shaking.
Wash plate 3×with deionized water, then once with TBST. Pat plate on a paper towel to remove excess liquid and bubbles.
Dilute lysate in HNTG (10 μg lysate/100 μl HNTG).
Add 100 μl of diluted lysate to each well. Shake at room temperature for 60 min.
Wash plates as described in Step 4.
Add 80 μl working kinase buffer mix to ELISA plate containing captured PDGFR.
Add 10 μl diluted test compound to ELISA plate. To control wells, add 10 μl TBS+10% DMSO. Incubate with shaking for 30 minutes at room temperature.
Add 10 μl ATP directly to all wells except negative control well (final well volume should be approximately 100 μl with 20 μM ATP in each well.) Incubate 30 minutes with shaking.
Stop reaction by adding 10 μl of EDTA solution to each well.
Wash 4×with deionized water, twice with TBST.
Add 100 μl anti-phosphotyrosine (1:3000 dilution in TBST) per well. Incubate with shaking for 30-45 min. at room temperature.
Incubate with shaking for 30 min. at room temperature.
Add 100 μl of ABTS/H2O2 solution to each well.
Incubate 10 to 30 minutes with shaking. Remove any bubbles.
If necessary stop reaction with the addition of 100 μl 0.2 M HCl per well.

`Cc1[nH]c(/C=C2\C(=O)Nc3ccc(Br)cc32)c(-c2ccccc2)c1C(=O)NCCN1CCCC1` [Example 42, 5-(5-Bromo-2-oxo-1,2-dihydroindol-3-ylidenemethyl)-2-methyl-4-phenyl-1H-pyrrole-3-carboxylic acid (2-pyrrolidin-1-yl-ethyl)amide]: the IC50 amounted to 0.1 µM on GST-Flk1; 12 µM on EGFR [1]; 74.6 µM against EGFR [2]; 0.12 µM against PDGFR-β; 20.4 µM on HER-2 kinase.
Take `Cc1[nH]c(/C=C2\C(=O)Nc3cc(-c4ccccc4)ccc32)c(C)c1C(=O)NCCCn1ccnc1` [Example 61, 2,4-Dimethyl-5-(2-oxo-6-phenyl-1,2-dihydroindol-3-ylidenemethyl)-1H-pyrrole-3-carboxylic acid (3-imidazol-1-ylpropyl)amide]: the IC50 was > 100 µM at EGFR [1], > 100 µM on EGFR [2], < 0.78 µM against PDGFR-β and > 100 µM on HER-2 kinase.
As to `Cc1[nH]c(/C=C2\C(=O)Nc3ccc(Br)cc32)c(C)c1C(=O)NCCCn1ccnc1` [Example 53, 5-(5-Bromo-2-oxo-1,2-dihydroindol-3-ylidenemethyl)-2,4-dimethyl-1H-pyrrole-3-carboxylic acid (3-imidazol-1-ylpropyl)amide], the 50% inhibitory concentration (IC50) was > 100 µM on EGFR [1], > 100 µM against EGFR [2], < 0.78 µM at PDGFR-β and > 100 µM at HER-2 kinase.
On to `COc1cccc(-c2ccc3c(c2)NC(=O)/C3=C\c2[nH]c(C)c(C(=O)NCCN(C)C)c2C)c1` [Example 55, 5-[6-(3-Methoxy-phenyl)-2-oxo-1,2-dihydroindol-3-ylidenemethyl]-2,4-dimethyl-1H-pyrrole-3-carboxylic acid (2-dimethylamino-ethyl)amide], for which the IC50 against GST-Flk1 was 0.27 µM; against EGFR [1], 6.03 µM; against EGFR [2] it was 36 µM; against PDGFR-β, 0.53 µM; at HER-2 kinase it was 77.8 µM.
Turning to `COc1ccccc1-c1ccc2c(c1)NC(=O)/C2=C\c1[nH]c(C)c(C(=O)NCCN2CCCC2)c1-c1ccccc1` [Example 43, 5-[6-(2-Methoxy-phenyl)-2-oxo-1,2-dihydroindol-3-ylidenemethyl]-2-methyl-4-phenyl-1H-pyrrole-3-carboxylic acid (2-pyrrolidin-1-yl-ethyl)amide], the IC50 is 1.12 µM at GST-Flk1, 37.3 µM against EGFR [2], 8.38 µM against PDGFR-β and 53.4 µM on HER-2 kinase.
As for `CCOC(=O)c1c(C)[nH]c(/C=C2\C(=O)Nc3ccc(Br)cc32)c1-c1ccccc1` [Example 46, 5-(5-Bromo-2-oxo-1,2-dihydroindol-3-ylidenemethyl)-2-methyl-4-phenyl-1H-pyrrole-3-carboxylic acid ethyl ester], the IC50 was 30.6 µM at GST-Flk1; > 100 µM at EGFR [1]; > 100 µM on EGFR [2]; 6.18 µM at PDGFR-β; > 100 µM on HER-2 kinase.
On to `CC(C)c1[nH]c(/C=C2\C(=O)Nc3ccc(Br)cc32)c(C(C)C)c1C(=O)NCCCN1CCCC1` [Example 73, 5-(5-Bromo-2-oxo-1,2-dihydroindol-3-ylidenemethyl)-2,4-diisopropyl-1H-pyrrole-3-carboxylic acid (3-pyrrolidin-1-ylpropyl)amide], for which the IC50 against GST-Flk1 was 5.95 µM; on EGFR [1], > 100 µM; against EGFR [2], 39.5 µM; on PDGFR-β it was 14.1 µM; at HER-2 kinase it was 8.59 µM.
Turning to `Cc1cc(C(=O)O)[nH]c1/C=C1\C(=O)N(C)c2ccccc21` [Example 2, 4-Methyl-5-(1-methyl-2-oxo-1,2-dihydroindol-3-ylidenemethyl)-1H-pyrrole-2-carboxylic acid], the IC50 against GST-Flk1, against EGFR [1], on EGFR [2] and against PDGFR-β was > 100 µM in each case.
`CCN(CC)CCNC(=O)c1ccc(/C=C2\C(=O)Nc3cc(-c4ccccc4)ccc32)[nH]1` [Example 9, 5-(2-Oxo-6-phenyl-1,2-dihydroindol-3-ylidenemethyl)-1H-pyrrole-2-carboxylic acid (2-diethylaminoethyl)amide]: the IC50 against GST-Flk1 is 0.96 µM; against EGFR [1], > 100 µM; against EGFR [2], > 100 µM; against PDGFR-β, > 100 µM; on HER-2 kinase it was 16.4 µM.
Turning to `CCN(CC)CCCNC(=O)c1c(C)[nH]c(/C=C2\C(=O)Nc3cc(-c4ccccc4)ccc32)c1C` [Example 68, 2,4-Dimethyl-5-(2-oxo-6-phenyl-1,2-dihydroindol-3-ylidenemethyl)-1H-pyrrole-3-carboxylic acid (3-diethylaminopropyl)amide], the IC50 on GST-Flk1 was found to be 1.16 µM; on EGFR [2] it was 23.5 µM; against PDGFR-β, 0.03 µM; on HER-2 kinase, 34.1 µM.
In the case of `CCN(CC)CCCNC(=O)c1c(C)[nH]c(/C=C2\C(=O)Nc3cccc(C(=O)Nc4ccc(OC)c(Cl)c4)c32)c1C` [Example 69, 3-[4-(3-Diethylamino-propylcarbamoyl)-3,5-dimethyl-1H-pyrrol-2-ylmethylene]-2-oxo-2,3-dihydro-1H-indole-4-carboxylic acid (3-chloro-4-methoxy-phenyl)amide], the figures for the IC50 on GST-Flk1, against EGFR [2] and against PDGFR-β were 0.3 µM, 97.5 µM and 56.5 µM, respectively.
Turning to `Cc1[nH]c(/C=C2\C(=O)Nc3cc(-c4ccccc4)ccc32)c(C)c1C(=O)NCCN1CCCC1` [Example 60, 2,4-Dimethyl-5-(2-oxo-6-phenyl-1,2-dihydroindol-3-ylidenemethyl)-1H-pyrrole-3-carboxylic acid (2-pyrrolidin-1-yl-ethyl)amide], the IC50 is > 100 µM on EGFR [1], > 100 µM at EGFR [2], < 0.78 µM on PDGFR-β and > 100 µM at HER-2 kinase.
For `CCN(CC)CCNC(=O)c1c(C)[nH]c(/C=C2\C(=O)Nc3cc(-c4ccccc4)ccc32)c1C` [Example 59, 2,4-Dimethyl-5-(2-oxo-6-phenyl-1,2-dihydroindol-3-ylidenemethyl)-1H-pyrrole-3-carboxylic acid (2-diethylaminoethyl)amide], the IC50 is > 100 µM at EGFR [1], > 100 µM against EGFR [2], < 0.78 µM against PDGFR-β and > 100 µM at HER-2 kinase.
Take `Cc1[nH]c(/C=C2\C(=O)Nc3ccc(-c4ccccc4)cc32)c(C)c1C(=O)NCCCN(C)C` [Example 66, 2,4-Dimethyl-5-(2-oxo-5-phenyl-1,2-dihydroindol-3-ylidenemethyl)-1H-pyrrole-3-carboxylic acid (3-dimethylamino-propyl)amide]: the IC50 was < 0.05 µM at GST-Flk1, > 100 µM against EGFR [1], 11.8 µM at EGFR [2] and 2.76 µM on HER-2 kinase.
For `COc1ccccc1-c1ccc2c(c1)NC(=O)/C2=C\c1[nH]c(C)c(C(=O)NCCN(C)C)c1C` [Example 54, 5-[6-(2-Methoxy-phenyl)-2-oxo-1,2-dihydroindol-3-ylidenemethyl)-2,4-dimethyl-1H-pyrrole-3-carboxylic acid (2-dimethylamino-ethyl)amide] the same measures were 1.98 µM, 23.9 µM, 9.76 µM and 7.02 µM.
